In ChEMBL document CHEMBL1201862, “PubChem BioAssay data set” (2004):
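These data come from cells grown in 96-well plates and exposed to compound for 48 hours at five concentrations. GI50: concentration for 50% inhibition of growth.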 Active and inactive are the calls of the source. Cut-off read from the data, not from the text of the source: active = GI50 up to about 1.1 µM and inactive = higher.

Experiments:
Experiment in all cases: DTP human tumour cell line panel, 48 h
SNB-78 = system: SNB-78
786-0 = system: 786-0
PC-3 = system: PC-3
DU-145 = system: DU-145
MDA-MB-435 = system: MDA-MB-435
MDA-MB-231 = system: MDA-MB-231
T47D = system: T47D
BT-549 = system: BT-549
RXF 631 = system: RXF 631

Measured: GI50

CC(=O)C(=O)NC1/C=C(C)\C=C/C(O)C/C=C(C)\C=C/C(O)CC2OC(=O)C1(C)C(=O)C2C (configuration not stated)
inactive: SNB-78 > 100 µM

CSC(=S)N(C)c1nc(N(C)C)s[s+]1
inactive: SNB-78 > 100 µM | 786-0 > 100 µM

CSc1nc(NC2OC(CO)C(O)C(O)C2O)c(N)c(=O)n1C (configuration not stated)
inactive: SNB-78 > 100 µM

NCCCn1c(Cl)nc2ccccc21
inactive: PC-3 > 100 µM | DU-145 > 100 µM | MDA-MB-435 > 100 µM | MDA-MB-231 > 100 µM | T47D > 100 µM | BT-549 > 100 µM | 786-0 > 100 µM

CNC(=S)N/N=C(/C)CCC/C(C)=N/NC(=S)NC
inactive: PC-3 3.71 µM | DU-145 > 68.5 µM | MDA-MB-435 > 71.8 µM | MDA-MB-231 > 28.6 µM | T47D 1.23 µM | BT-549 > 100 µM

CO/N=C1/c2sccc2[C@H](NC(=O)C(Cc2ccccc2)NC(=O)OC(C)(C)C)[C@@H]1O (some centres not stated)
inactive: PC-3 > 100 µM | DU-145 > 100 µM | MDA-MB-435 > 100 µM | MDA-MB-231 > 100 µM | T47D 63.2 µM | BT-549 > 100 µM

CCC1CN2CCc3cc(OC)c(OC)cc3C2CC1CC1c2cc(OC)c(OC)cc2CCN1C(=O)C(N)Cc1ccccc1.[O-][Cl+3]([O-])([O-])O (configuration not stated)
inactive: RXF 631 2.54 µM

C=C1CC(OC)(C(OC)C(=O)N(C)[C@H]2OCO[C@H]3C2O[C@H](C[C@@H](COC)OC)C(C)(C)C3OC)O[C@H](C)[C@@H]1C (some centres not stated)
inactive: SNB-78 12.2 µM

Cc1cc(C)c2c(c1)CC1(Cc3c(C)ccc(C)c3C1=O)C2=O (configuration not stated)
inactive: PC-3 > 100 µM | DU-145 > 100 µM | MDA-MB-435 > 100 µM | MDA-MB-231 > 100 µM | T47D > 100 µM | BT-549 > 100 µM

CCOC(=O)c1csc(NC(=O)C(C)N2CCOCC2)n1 (configuration not stated)
inactive: PC-3 > 100 µM | DU-145 > 100 µM | MDA-MB-435 > 100 µM | MDA-MB-231 > 100 µM | T47D > 100 µM

N#CCCN(CCC#N)c1ccc(/C=C2\N=C(c3cc([N+](=O)[O-])ccc3Cl)N(S(=O)(=O)c3ccccc3)C2=O)cc1
inactive: SNB-78 > 100 µM
